Assay results as given in patent US10602743B2, “Method of inducing drought/salt tolerance using Bacillus megaterium” (Marrone Bio Innovations, Inc., priority 2012, dated 2020).
Structures can show the parent of a compound that is named as a salt.

system: Bacillus megaterium strain H491; assay: Chemical sensitivity, Biolog Phenotypic Microarray; format: cell-based; conditions: not given

SMILES | H491 susceptible to compound
Oc1cccc2cccnc12 [8-Hydroxyquinoline] | susceptible
CN1[C@@H]2CC[C@H]1C[C@@H](OC(=O)C(CO)c1ccccc1)C2 (some centres unmarked) [Atropine] | susceptible
O=C(O)CN(CCN(CC(=O)O)CC(=O)O)CC(=O)O [EDTA] | susceptible
O=C(O)CI [Iodoacetic acid] | susceptible

same assay, conditions: Biolog Phenotypic Microarray, 25° C.

SMILES | H491 susceptible to compound
CC(C)NCC(O)COc1cccc2ccccc12 (racemic) [D,L-Propanolol] | susceptible
O=C(O)CCCCC1CCSS1 (racemic) [D,L-Thioctic acid] | susceptible
O.c1cnc2c(c1)ccc1cccnc12 [1,10-Phenanthroline Monohydrate] | susceptible
On1ccccc1=S [1-Hydroxypyridine-2-thione] | susceptible
c1ccc(-c2ccccn2)nc1 [2,2′-Dipyridyl] | susceptible
CC(C)c1nc2nc(N)nc(N)c2nc1C(C)C [2,4-Diamino-6,7-diisopropylpteridine] | susceptible
O=[N+]([O-])c1ccc(O)c([N+](=O)[O-])c1 [2,4-Dintrophenol] | susceptible
O=[N+]([O-])c1ncc[nH]1 [2-Nitroimidazole] | susceptible
Oc1ccccc1-c1ccccc1 [2-Phenylphenol] | susceptible
O=C(O)c1cc([N+](=O)[O-])cc([N+](=O)[O-])c1 [3,5-Dinitrobenzoic acid] | susceptible
Nc1nc[nH]n1 [3-Amino-1,2,4-triazole] | susceptible
Cc1cc(O)cc(C)c1Cl [4-Chloro-3,5-dimethyl-phenol] | susceptible
O=c1cc(O)c2ccccc2o1 [4-Hydroxycoumarin] | susceptible
Cc1ccc2c(Cl)cc(Cl)c(O)c2n1 [5,7-Dichloro-8-hydroxyquinaldine] | susceptible
Oc1c(Cl)cc(Cl)c2cccnc12 [5,7-Dichloro-8-hydroxyquinoline] | susceptible
Oc1c(I)cc(Cl)c2cccnc12 [5-Chloro-7-iodo-8-hydroxy-quinoline] | susceptible
C[C@H]1O[C@@H](n2cc(F)c(=O)[nH]c2=O)[C@H](O)[C@@H]1O [5-Fluoro-5′-deoxyuridine] | susceptible
O=C(O)c1[nH]c(=O)[nH]c(=O)c1F [5-Fluoroorotic acid] | susceptible
O=c1[nH]cc(F)c(=O)[nH]1 [5-Fluorouracil] | susceptible
NC(=O)NN=Cc1ccc([N+](=O)[O-])o1 [5-Nitro-2-furaldehyde semicarbazone] | susceptible
O.Sc1ncnc2nc[nH]c12 [6-Mercaptopurine monohydrate] | susceptible
CCCCC(CC)CNC(=N)NC(=N)NCCCCCCNC(=N)NC(=N)NCC(CC)CCCC (centres unmarked) [Alexidine] | susceptible
CN(C)CCC=C1c2ccccc2CCc2ccccc21 [Amitriptyline] | susceptible
CC1(C)S[C@@H]2[C@H](NC(=O)[C@H](N)c3ccc(O)cc3)C(=O)N2[C@H]1C(=O)O [Amoxicillin] | susceptible
[Cl][Sb]([Cl])[Cl] [Antimony (III) chloride] | susceptible

SMILES | H491 susceptible to compound
CN[C@@H]1[C@@H](O[C@H]2O[C@H](CO)[C@@H](N)[C@H](O)[C@H]2O)OC2C[C@@H](N)[C@@H](O[C@H]3[C@H](O)[C@@H](O)[C@H](N)C[C@@H]3N)OC2[C@@H]1O (some centres unmarked) [Apramycin] | susceptible
CC1(C)S[C@@H]2[C@H](NC(=O)[C@H](NC(=O)N3CCNC3=O)c3ccccc3)C(=O)N2[C@H]1C(=O)O [Azlocillin] | susceptible
CC(C)(C)CC(C)(C)c1ccc(OCCOCC[N+](C)(C)Cc2ccccc2)cc1 [Benzethonium Chloride] | susceptible
OB(O)O [Boric acid] | susceptible
[Cl][Cd][Cl] [Cadmium chloride] | susceptible
Cn1c(=O)c2c(ncn2C)n(C)c1=O [Caffeine] | susceptible
O=C1C2CC=CCC2C(=O)N1SC(Cl)(Cl)Cl (centres unmarked) [Captan] | susceptible
CC1(C)S[C@@H]2[C@H](NC(=O)C(C(=O)O)c3ccccc3)C(=O)N2[C@H]1C(=O)O (some centres unmarked) [Carbenicillin] | susceptible
N#CC(C#N)=NNc1cccc(Cl)c1 [Carbonyl-cyanide m-chlorophenylhydrazone] | susceptible
Cc1nnc(SCC2=C(C(=O)O)N3C(=O)[C@@H](NC(=O)Cn4cnnn4)[C@H]3SC2)s1 [Cefazolin] | susceptible
CO[C@@]1(NC(=O)Cc2cccs2)C(=O)N2C(C(=O)O)=C(COC(N)=O)CS[C@@H]21 [Cefoxitin] | susceptible
NC(=O)c1cc[n+](CC2=C(C(=O)O)N3C(=O)[C@@H](NC(=O)[C@@H](c4ccccc4)S(=O)(=O)[O-])[C@H]3SC2)cc1 [Cefsulodin] | susceptible
CC(=O)OCC1=C(C(=O)O)N2C(=O)[C@@H](NC(=O)Cc3cccs3)[C@H]2SC1 [Cephalothin] | susceptible
[Cl-].[Cs+] [Cesium chloride] | susceptible
O=C(O)CCCc1ccc(N(CCCl)CCCl)cc1 [Chlorambucil] | susceptible
CC(=O)O.CC(=O)O.NC(=N\CCCCCC/N=C(N)/N=C(\N)Nc1ccc(Cl)cc1)/N=C(\N)Nc1ccc(Cl)cc1 [Chlorhexidine diacetate] | susceptible
CN(C)CCCN1c2ccccc2Sc2ccc(Cl)cc21 [Chlorpromazine] | susceptible
CCn1nc(C(=O)O)c(=O)c2cc3c(cc21)OCO3 [Cinoxacin] | susceptible
Cc1onc(-c2ccccc2Cl)c1C(=O)N[C@@H]1C(=O)N2[C@@H]1SC(C)(C)[C@@H]2C(=O)O [Cloxacillin] | susceptible
[Cl-].[Cl-].[Co+2] [Cobalt (II) chloride] | susceptible
CN(C)c1ccc(C(=C2C=CC(=[N+](C)C)C=C2)c2ccc(N(C)C)cc2)cc1 [Crystal violet] | susceptible
N[C@@H]1CONC1=O [D-Cycloserine] | susceptible
N[C@H](CO)C(=O)O [D-Serine] | susceptible
CN(C)[C@@H]1C(O)=C(C(N)=O)C(=O)[C@@]2(O)C(O)=C3C(=O)c4c(O)ccc(Cl)c4[C@@H](O)[C@H]3C[C@@H]12 [Demeclocycline] | susceptible
CN(C)C(=O)/N=N/C(=O)N(C)C [Diamide] | susceptible

SMILES | H491 susceptible to compound
CN(C)S(=O)(=O)N(SC(F)(Cl)Cl)c1ccccc1 [Dichlofluanid] | susceptible
CCCCCCCCCCCC[N+](C)(C)C.[Br-] [Dodecyltrimethyl ammonium bromide] | susceptible
CCCCCCCCCCCC[N+](C)(C)CCOc1ccccc1 [Domiphen bromide] | susceptible
CCn1cc(C(=O)O)c(=O)c2cc(F)c(N3CCNCC3)nc21 [Enoxacin] | susceptible
O=C(O)CN(CCOCCOCCN(CC(=O)O)CC(=O)O)CC(=O)O [Ethylene Glycol-bis(b-Aminoethyl ether)-N,N,N′,N′-Tetraacetic Acid] | susceptible
N#CC(C#N)=NNc1ccc(OC(F)(F)F)cc1 [FCCP] | susceptible
O=C1OC(CN2CCOCC2)CN1/N=C/c1ccc([N+](=O)[O-])o1 (centres unmarked) [Furaltadone] | susceptible
CC(=O)O[C@H]1C[C@@]2(C)[C@@H](C[C@@H](O)[C@H]3[C@@]4(C)CC[C@@H](O)[C@@H](C)[C@@H]4CC[C@@]32C)/C1=C(\CCC=C(C)C)C(=O)O [Fusidic acid, sodium salt] | susceptible
O=C(O)c1cc(O)c(O)c(O)c1 [Gallic acid] | susceptible
NCC(=O)NO [Glycine hydroxamate] | susceptible
N=C(N)N [Guanidine hydrochloride] | susceptible
Oc1c(Cl)cc(Cl)c(Cl)c1Cc1c(O)c(Cl)cc(Cl)c1Cl [Hexachlorophene] | susceptible
N.N.N.N.N.N.[Cl-].[Cl-].[Cl-].[Co+3] [Hexamine cobalt (III) chloride] | susceptible
NC(=O)NO [Hydroxyurea] | susceptible
CO[C@@H]1[C@@H](O[C@@H]2O[C@H](C)[C@@H](O[C@H]3C[C@@](C)(O)[C@@H](OC(=O)CC(C)C)[C@H](C)O3)[C@H](N(C)C)[C@H]2O)[C@@H](CC=O)C[C@@H](C)[C@@H](O)/C=C/C=C/C[C@@H](C)OC(=O)C[C@H]1OC(C)=O [Josamycin] | susceptible
CC(C(=O)O)c1cccc(C(=O)c2ccccc2)c1 (centres unmarked) [Ketoprofen] | susceptible
N[C@@H](CC(=O)NO)C(=O)O [L-Aspartic-b-hydroxamate] | susceptible
CCCCCCCCCCCC[N+](C)(C)CCCS(=O)(=O)[O-] [Lauryl sulfobetaine, N-Dodecyl-N,N-dimethyl-3-ammonio-1-propanesulfonate] | susceptible
CCN(CC)CC(=O)Nc1c(C)cccc1C [Lidocaine] | susceptible
CCC[C@@H]1C[C@@H](C(=O)N[C@@H]([C@H]2O[C@H](SC)[C@H](O)[C@@H](O)[C@H]2O)[C@@H](C)O)N(C)C1 [Lincomycin] | susceptible
[Cl-].[Li+] [Lithium chloride] | susceptible
CC1(S(=O)(=O)[O-])CC(=O)c2ccccc2C1=O.[Na+] (centres unmarked) [Menadione, sodium bisulfite] | susceptible
C[n+]1ccc(-c2cc[n+](C)cc2)cc1 [Methyl viologen] | susceptible
